The values below come from patent US6596778B1, “β-endorphin peptides for treating muscle-wasting diseases” (The University of Birmingham, priority 1997, dated 2003).

Where a SMILES comes first, the peptide text is derived from it. Where no end group is shown, it is not given here. [ ]: non-standard residue; d: D form. Sar = CNCC(=O)O

In test [1] the test system is mouse diaphragm muscle. It is filed as cell-based, mice, C57BL/6j strain. Conditions: for blockade of the agonist's/peptide's effect on contractile responses by BNTX (d1-opioid antagonist): BNTX 2.5×10^−7 M; for blockade of the agonist's/peptide's effect on contractile responses by BNTX (d1-opioid antagonist) / blockade of the agonist's/peptide's effect on contractile responses by NTB (d2-opioid antagonist): agonist/peptide 2.5×10^−7 M; for blockade of the agonist's/peptide's effect on contractile responses by NTB (d2-opioid antagonist): NTB 2.5×10^−7 M; for blockade of the peptide's effect on contractile responses by naloxone: naloxone 2.5×10^−6 M; for blockade of the peptide's effect on contractile responses by naloxone / 1/2 relaxation time / Time to peak: peptide 2.5×10^−7 M; for 1/2 relaxation time / Time to peak: low frequency indirect stimulation, mean ± S.E.M. Here is the method:
(§1) Adult female mice, 3-4 months of age, of the C57BL/6j strain were killed by cervical dislocation and the skin and musculature around the rib cage were removed. The diaphragm and part of the rib cage were carefully dissected out along with a length of the left phrenic nerve. The left hemidiaphragm (together with the left phrenic nerve stump) was pinned out in an organ bath containing oxygenated Krebs solution which was gassed continuously with 95% O2-5% CO2 at room temperature (approximately 20° C.) as described in Khan, S.; Smith, M. E., Muscle Nerve, 18, 1250-1256; 1995. The central tendon was attached with the aid of a silk thread to a force transducer (Dynamometer, model UF1), and the phrenic nerve was introduced into the end of a suction electrode for indirect stimulation.
The phrenic nerve was stimulated continuously at a low frequency (0.5 Hz) with supramaximum square wave pulses of 0.2 msec width using a dual channel stimulator (Digitimer D4030). The muscle was allowed to equilibrate until the responses of the stimulated muscle had reached a constant amplitude (approximately 20 min). Krebs solution ([…]), or a solution ([…]) of the appropriate peptide, was added to the centre of the organ bath whilst the contractions were being recorded.
(§2) Direct stimulation of the muscle was effected by two stainless steel needle electrodes placed near the centre of the hemidiaphragm. The position of the force transducer was adjusted until a constant resting tension was seen. When direct stimulation of the muscle was employed d-tubocurarine chloride (2.5×10^−6M) was included in the bathing medium to block the acetylcholine (ACh) receptors and prevent indirect stimulation of the muscles via the motor nerve terminals. The phrenic nerve was stimulated continuously at 0.5 Hz, d-tubocurarine was added to the organ bath, and then, when the responses to nerve stimulation had ceased, the muscle was subjected to continuous direct supramaximum stimulation at a frequency of 0.5 Hz. […] The amplitude, time to peak and half relaxation time of the contractions developed in response to indirect and direct stimulation were determined. The half-relaxation time of the contractions was expressed as the time taken for the tension to decline from the maximum amplitude to half maximum. The dose-response curves were analyzed using a Kaloidograph software package to determine the values for EC50 and maximum response. The significance of the results was determined, unless otherwise stated, using ANOVA, with treatment as the grouping factor, followed by the Bonferroni-Dunn post hoc test.

Test [2] deals with mouse diaphragm muscle. Put plainly: Contractions of hemidiaphragm in response to direct stimulation of the muscle in the presence of d-tubocurarine. It counts as cell-based, mice, C57BL/6j strain. Conditions: peptide 2.5×10^−8 M, mean ± S.E.M. The protocol: as §1
as §2, with “terminals.” for “terminals. The phrenic nerve was stimulated continuously at 0.5 Hz, d-tubocurarine was added to the organ bath, and then, when the responses to nerve stimulation had ceased, the muscle was subjected to continuous direct supramaximum stimulation at a frequency of 0.5 Hz.”, “test. […]” for “test.”

Test [3] concerns dystrophic mice. Description: Chronic intravenous injection in dystrophic mice (body weight, EDL muscle weight, CPK in blood and muscle). It is filed as in vivo. The protocol:
In one series of experiments, the C-terminal peptide, glycylglutamine, was injected intravenously into the blood of dystrophic mice 4 to 5 times a week in an amount of approximately 1.5 microgram/g body weight each time over a seven week period. Control mice were injected with the same volume of saline at the same times. There were six mice in each group.
The following measurements were made:
1. Change in body weight (the dystrophic mice would usually not gain significant weight over seven weeks and might even lose weight-depending on their age).
2. Weight of the extensor digitorum longus (EDL) muscle.
3. Level of CPK in the blood (a diagnostic test for muscular dystrophy is to measure the level of CPK in the blood. In muscle diseases, the blood levels of enzymes such as CPK are elevated and in muscular dystrophy the levels can be very high).
4. CPK enzyme levels in the muscle.

Test [4] deals with CPK leakage into the blood. The settings on record: intravenous injection of β-endorphin alone; cited from earlier work.
Test [5] deals with mouse diaphragm muscle. Put plainly: Contractions of hemidiaphragm in response to nerve stimulation in the presence of neostigmine sulphate. Conditions: neostigmine sulphate 10^−5 M, peptide 10^−7 M; mean ± S.E.M. It is filed as cell-based, mice, C57BL/6j strain. Here is the method:
as §1
The phrenic nerve was stimulated continuously at a low frequency (0.5 Hz) with supramaximum square wave pulses of 0.2 msec width using a dual channel stimulator (Digitimer D4030). The muscle was allowed to equilibrate until the responses of the stimulated muscle had reached a constant amplitude (approximately 20 min). Krebs solution ([…]), or a solution ([…]) of the appropriate peptide, was added to the centre of the organ bath whilst the contractions were being recorded. […]

Setting [6] is: indirect stimulation 0.5 Hz, mean ± SEM.

`N[C@@H](CCC(=O)O)C(=O)O` [L-glutamic acid]: the “effect on the amplitude of the contractions (in words)” value (“effect on the amplitude” below) in test [1] (indirect stimulation 0.5 Hz) is recorded as “no effect”.

As for `CC(C)[C@H](NC(=O)[C@H](CCC(=O)O)NC(=O)[C@H](Cc1ccccc1)NC(=O)[C@@H](C)NC(=O)[C@@H](N)Cc1ccc(O)cc1)C(=O)N[C@H](C(=O)NCC(N)=O)C(C)C` [deltorphin II], the EC50 in test [1] (indirect stimulation 0.5 Hz, room temperature, read-out: EC50 for increase in contractile response) turned out to be 0.2 nM.

On to `NCC(=O)N[C@@H](CCC(N)=O)C(=O)O` [glycylglutamine, glycyl-L-glutamine] (H-Gly-Gln-OH), for which the “tension developed, % of the control values (absence of added peptide)” value in test [2] stood at 98.7±0.9%. Also, the “increase in body weight” value in test [3] (i.v. approximately 1.5 microgram/g 4 to 5 times a week, seven week period, statistically significant) was “approximately 12%”. Also, the “reduction of CPK level in the blood” value in test [3] (i.v. approximately 1.5 microgram/g 4 to 5 times a week, seven weeks) is 25%. The “increase in EDL muscle weight” value in test [3] (i.v. approximately 1.5 microgram/g 4 to 5 times a week, seven weeks, not statistically significant) is on record as “approximately 5%”. For the same molecule, the “increase of enzyme (CPK) concentration in the EDL muscle” value in test [3] (seven weeks, calculated on a wet weight basis) was 55%. Also, in test [1], the “blockade of the agonist's/peptide's effect on contractile responses by BNTX (d1-opioid antagonist)” value is “Neither naloxone, BNTX, nor NTB blocked”; the “blockade of the agonist's/peptide's effect on contractile responses by NTB (d2-opioid antagonist)” value (“blockade … (d2-opioid antagonist)” for short) is “Neither naloxone, BNTX, nor NTB blocked”; the “blockade of the peptide's effect on contractile responses by naloxone” value (“blockade of the peptide's effect” for short) is on record as “Neither naloxone, BNTX, nor NTB blocked”. For the same molecule, the “lowest concentration at which significant increases in contractile responses were seen” value in test [1] (indirect stimulation) was 10^−10 M. In addition, the “effect on the amplitude” value in test [1] (indirect stimulation 0.5 Hz) was “immediate increase”. Besides, the “maximum increase in the response” value in test [1] (setting [6]) turned out to be 18.5±1.5%.

Consider `CC[C@H](C)[C@H](NC(=O)[C@H](C)NC(=O)[C@H](CC(N)=O)NC(=O)[C@H](CCCCN)NC(=O)[C@H](Cc1ccccc1)NC(=O)[C@H](CC(C)C)NC(=O)[C@@H](NC(=O)[C@@H](NC(=O)[C@H](CC(C)C)NC(=O)[C@@H]1CCCN1C(=O)[C@@H](NC(=O)[C@H](CCC(N)=O)NC(=O)[C@H](CO)NC(=O)[C@H](CCCCN)NC(=O)[C@H](CCC(=O)O)NC(=O)[C@H](CO)NC(=O)[C@@H](NC(=O)[C@H](CCSC)NC(=O)[C@H](Cc1ccccc1)NC(=O)CNC(=O)CNC(=O)[C@@H](N)Cc1ccc(O)cc1)[C@@H](C)O)[C@@H](C)O)C(C)C)[C@@H](C)O)C(=O)N[C@H](C(=O)N[C@@H](CCCCN)C(=O)N[C@@H](CC(N)=O)C(=O)N[C@@H](C)C(=O)N[C@@H](Cc1ccc(O)cc1)C(=O)N[C@@H](CCCCN)C(=O)N[C@@H](CCCCN)C(=O)NCC(=O)N[C@@H](CCC(=O)O)C(=O)O)[C@@H](C)CC` [β-endorphin], for which the “effect in preventing CPK leakage into the blood” value in test [4] is “little effect”. Moreover, in test [1], the “blockade … (d2-opioid antagonist)” value is given as “neither”, the “blockade of the peptide's effect” value is reported as “complete blockade”, the 1/2 relaxation time is on record as 99.6 ± 0.3 percentage of the untreated controls and the Time to peak is reported as 94.1 ± 0.5 percentage of the untreated controls. Also, the “effect on the amplitude” value in test [1] (indirect stimulation 0.5 Hz) is reported as “immediate increase”. Also, in test [1] (setting [6]), the “maximum increase in the response” value amounted to 34.4±2.9%.

Turning to “Ac-K[dK][Sar]E [β-endorphin28-31 analogue]”, the “tension developed, % of the control values (absence of added peptide)” value in test [2] stood at 100±1.1%. In addition, the “tension developed in the presence of neostigmine sulphate” value in test [5] was determined as 103.4±1.0%. In addition, in test [1], the “blockade of the agonist's/peptide's effect on contractile responses by BNTX (d1-opioid antagonist)” value is “Neither naloxone, BNTX, nor NTB blocked”; the “blockade … (d2-opioid antagonist)” value is given as “Neither naloxone, BNTX, nor NTB blocked”; the “blockade of the peptide's effect” value is “Neither naloxone, BNTX, nor NTB blocked”; the 1/2 relaxation time is reported as 102.8 ± 2.6 percentage of the untreated controls. Besides, in test [1], the Time to peak is listed as 95.9 ± 0.3 percentage of the untreated controls. Also, in test [1] (indirect stimulation), the “duration of the effect on amplitude after addition of the peptide” value is reported as “at least 6 minutes” and the “lowest concentration at which significant increases in contractile responses were seen” value is on record as 10^−10 M. Further, the “effect on the amplitude” value in test [1] (indirect stimulation 0.5 Hz) is reported as “immediate increase”. Also, the “maximum increase in the response” value in test [1] (setting [6]) was found to be 16.7±0.9%.

As to “N-Acetyl β-endorphin (Ac-YGGFMTSEKSQTPLVTLFKNAIIKNAYKKGE; UniProt P01189 237-267, looked up)”, the “effect on the amplitude” value in test [1] (indirect stimulation 0.5 Hz) is “no significant effect”. In addition, in test [1] (three preparations, concentration not given, mean ± SEM), the “responses in the presence of the peptide” value is 101.5±0.7%.

With “β-Endorphin 1-16 (YGGFMTSEKSQTPLVT; Beta-endorphin; UniProt P01189 237-252, looked up, fragment) [β-endorphin fragment (α-endorphin)]”, in test [1] (indirect stimulation 0.5 Hz), the “effect on the amplitude” value was “no significant effect”. Moreover, in test [1] (peptide 10^−6 M, indirect stimulation), the “tension developed, % of the control tension” value was 102.0±0.2%.

As for “β-endorphin1-27 (YGGFMTSEKSQTPLVTLFKNAIIKNAY; Beta-endorphin; UniProt P01189 237-263, looked up, fragment)”, in test [2], the “tension developed, % of the control values (absence of added peptide)” value amounted to 99.6±0.5%. For the same molecule, in test [5], the “tension developed in the presence of neostigmine sulphate” value is listed as 102.3±1.2%. In test [1], the “blockade … (d2-opioid antagonist)” value is reported as “neither”, the “blockade of the peptide's effect” value is on record as “had no effect on the amplitude of the contractions”, the 1/2 relaxation time is given as 99.4 ± 0.4 percentage of the untreated controls and the Time to peak is recorded as 98.1 ± 0.4 percentage of the untreated controls. Also, the “effect on the amplitude” value in test [1] (indirect stimulation 0.5 Hz) is given as “immediate increase”. The “maximum increase in the response” value in test [1] (setting [6]) is recorded as “not maximum even at 10^−6 M”.
